Measurements published in PMC9332470, “Production and Selection of Antibody–Antigen Pairs for the Development of Immunoenzyme Assay and Lateral Flow Immunoassay Methods for Carbofuran and Its Analogues” (Biosensors, 2022).
Values after ≈ are worked out from the molar mass of the structure shown.

How the values were obtained:
mAb 13C8 [1] = experiment: indirect competitive ELISA (icELISA) with mAb 13C8; type: binding, BALB/c mice
Protocol: (§1) Microplates were coated with coating antigens. Different concentrations of the standard (50 µL) and the mAb (50 µL) were added to each well, and the plates were incubated for 20 min at 37 °C. The plates were washed with PBS (0.01 M, containing 0.05% (v/v) Triton X-100), 100 μL of goat anti-mouse IgG-HRP conjugate solution was added to each well, and the plates were incubated for 20 min at 37 °C. After the plates were washed with PBS (0.01 M, containing 0.05% Triton X-100, v/v), 100 µL of TMB single-component substrate solution was added to each well, followed by incubation at 37 °C for 10 min. Finally, the reaction was terminated, and the absorbance at 450 nm was measured by a microplate reader.
Taking the logarithm of the carbofuran concentration as the abscissa and (B/B0)% as the ordinate, the standard curves for ELISA and QD-LFIA were obtained based on the Morgan–Mercer–Flodin (MMF) model, which were fitted by CurveExpert 1.4.0 software (https://www.curveexpert.net, accessed on 15 July 2022). For the ELISA method, B and B0 are the absorbance of the sample well and blank well, respectively. For the QD-LFIA method, B and B0 are the T/C (fluorescence intensity of the test line/fluorescence intensity of the control line) of the sample and blank control, respectively.
(§2) The inhibition ratio (I%) was calculated as (B0-B)/B0 × 100%. IC50 is the concentration of the carbofuran at an I% of 50%, and the limit of detection (LOD) was determined as the concentration showing 10% of inhibition.
The cross-reactivities (CRs) of benfuracarb, carbosulfan, 3-hydroxy-carbofuran, metolcarb, carbaryl, isoprocarb and aldicarb with carbofuran were assessed by ELISA and QD-LFIA. CR was calculated as CR (%) = [IC50 (carbofuran)/IC50 (analogues)] × 100%.
The microplate was coated with the coating antigens DDB-BSA (1 µg/mL), DDB-OVA (0.5 µg/mL), MDA-BSA (0.2 µg/mL) and MDA-OVA (0.1 µg/mL), and the concentration of mAb 13C8 was 0.03 µg/mL. Carbofuran standards (0, 0.05, 0.15, 0.45, 1.35 and 4.05 ng/mL) were detected to obtain a standard curve, and the IC50 was calculated. […] In the icELISA used in this study, free antigen (carbofuran) in solution competed with the coating antigen on the microplate for antibody 13C8; therefore, the IC50 value was negatively correlated with the antibody-binding ability of free antigen competing with coating antigens.
The ELISA method was developed with the antibody 13C8–antigen MDA-BSA pair. Under the optimized coating antigen concentration (0.1 μg/mL), HRP-conjugated goat anti-mouse IgG concentration (1 μg/mL), antibody concentration (0.03 μg/mL) and working buffer parameters (5 mM PBS at pH 7.4), a standard curve was obtained with the concentration of carbofuran on the abscissa and the inhibition ratio (B/B0) on the ordinate.

mAb 18G3 = experiment: ELISA reactivity of hybridoma supernatant, cell line 18G3; type: binding, BALB/c mice; details: cell line 18G3 supernatant, 50 ng/mL pesticide
Protocol: (§3) The desired antibodies with the highest affinity were screened by icELISA with carbofuran as a competitive compound, and hybridoma cells were cloned by the limited dilution method. Then, the selected hybridoma cells were injected into mice for ascites production. Finally, the mAbs were purified by (NH4)2SO4 with saturation of 50% and further purified by an SPA column.
as §1, §2
(§4) Then, the reactivity of the supernatant of the six cell lines to 50 ng/mL carbofuran, benfuracarb and carbosulfan was assessed by ELISA, and the results are shown in Table 1. […] Because 13C8 had the highest reactivity with carbofuran, benfuracarb and carbosulfan among the six cell lines, it was injected into mice for ascites production, and the mAbs were purified by a protein A column for further experiments.

mAb 12D6 = experiment: ELISA reactivity of hybridoma supernatant, cell line 12D6; type: binding, BALB/c mice; details: cell line 12D6 supernatant, 50 ng/mL pesticide
Protocol: as §3, §1, §2, §4

[2] = tested on: specific antibody against carbofuran; details: double-label time-resolved fluorescent strip; cited from earlier work
[3] = tested on: mAb with the immunogen 3-succinyl-carbofuran-KLH; details: cited from earlier work
mAb 13C8 [4] = experiment: colloidal gold-based LFIA with mAb 13C8; type: binding, BALB/c mice
Protocol: Ten milliliters of colloidal gold solution was adjusted to pH 8.0 with K2CO3 (0.1 M) at room temperature, and then 60 μg of the antibody was added. After mixing for 30 min at room temperature, 200 μL of 20% (w/v) BSA was added to block the free colloidal gold for 20 min at room temperature. Then, the mixture was centrifuged at 15,777× g for 30 min at 4 °C. Finally, the precipitate was resuspended in 2000 μL of PBS (0.005 M at pH 8.2, containing 10% BSA, 2% glucose, 0.5% alanine, 5% PEG2000 and 0.1% NaN3, w/v) and stored at 4 °C.
An immunochromatographic test strip consisted of a sample pad, a conjugate pad, a nitrocellulose (NC) membrane and an absorbent pad. The mAb–colloidal gold conjugates (700 μL) were sprayed onto the conjugate pad (6 mm × 300 mm) and then dried under vacuum for 20 h at room temperature. DDB-OVA (50 μg/mL) or MDA-OVA (30 μg/mL) and goat anti-mouse IgG antibodies were dispensed on the NC membrane at a rate of 1 μL/cm as the test line (T line) and control line (C line), respectively. The NC membrane was then dried at 37 °C for 3 h. The sample pads, conjugate pads, NC membranes and absorbent pads were attached to the PVC plastic support, and then the assembled plate was cut to obtain 4 mm test strips and placed in a rigid plastic cassette.
We also dispensed DDB-OVA (50 μg/mL) and MDA-OVA (30 μg/mL) onto the NC membrane and labeled antibody 13C8 with colloidal gold to prepare colloidal gold LFIA test strips.

[5] = tested on: mAb with the immunogen BFNH-lactoferrin; details: heterologous coating antigen BFOA-BSA; cited from earlier work
[6] = tested on: mAb with the immunogen BFNB-BSA; details: heterologous coating antigen BFNH-OVA; cited from earlier work
[7] = tested on: specific antibody against carbofuran; details: cited from earlier work
[8] = tested on: broad-specificity mAb with the immunogen BFNB-BSA; details: cited from earlier work

## CNC(=O)Oc1cccc2c1OC(C)(C)C2 [carbofuran]
mAb 13C8 [1]; CR = IC50(carbofuran)/IC50(analogue) x 100%, optimized ELISA with mAb 13C8
  CR (%) (ELISA): 100.0%
mAb 13C8 [1]; antibody 13C8, coating antigen DDB-BSA (1 µg/mL)
  IC50 (ELISA): 0.19 ± 0.01 ng/mL (≈ 0.859 nM)
mAb 13C8 [1]; antibody 13C8, coating antigen DDB-OVA (0.5 µg/mL)
  IC50 (ELISA): 0.22 ± 0.02 ng/mL (≈ 0.994 nM)
mAb 13C8 [1]; antibody 13C8, coating antigen MDA-BSA (0.2 µg/mL)
  IC50 (ELISA): 0.20 ± 0.02 ng/mL (≈ 0.904 nM)
mAb 13C8 [1]; antibody 13C8, coating antigen MDA-OVA (0.1 µg/mL)
  IC50 (ELISA): 0.17 ± 0.01 ng/mL (≈ 0.768 nM)
mAb 13C8 [1]; concentration showing 10% of inhibition, optimized ELISA
  detection limit (ELISA): 0.02 ng/mL
mAb 13C8 [1]; optimized ELISA
  working range (ELISA): 0.02 to 2.09 ng/mL
mAb 13C8 [1]; optimized ELISA, mAb 13C8 0.03 μg/mL, coating antigen 0.1 μg/mL, given as MDA-BSA and MDA-OVA, unit from text
  IC50 (ELISA): 0.18 ± 0.03 ng/mL (≈ 0.814 nM)
mAb 18G3
  Reactivity of mAb (I%): 86%
mAb 12D6
  Reactivity of mAb (I%): 84%
[2]
  detection limit: 0.76 ng/mL
[3]
  CR(%) (ic-ELISA): 100.0%
  IC50 (ic-ELISA): 0.76 ± 0.07 ng/mL (≈ 3.43 nM)
mAb 13C8 [4]; heterologous coating antigen MDA-OVA (30 μg/mL)
  cut-off (colloidal gold LFIA): 3 ng/mL
mAb 13C8 [4]; heterologous coating antigen MDA-OVA, 1 ng/mL carbofuran
  change of T line versus 0 ng/mL: significantly lighter
mAb 13C8 [4]; homologous coating antigen DDB-OVA, 1000 ng/mL carbofuran
  change of T line versus 0 ng/mL: almost no change
[5]
  IC50 (ELISA): 1.4 ng/mL (≈ 6.33 nM)
[6]
  IC50 (ic-ELISA): 0.66 ng/mL (≈ 2.98 nM)
[7]
  IC50 (direct competitive ELISA): 1.3 ng/mL (≈ 5.88 nM)
[8]
  CR(%) (ic-ELISA): 100.0%
  IC50 (ic-ELISA): 8.97 ng/mL (≈ 40.5 nM)
